Results on one molecule are retold here after patent US20030225272A1, “Novel mmp-2/mmp-9 inhibitors” (priority 2003, published 2003).

The target in assay [1] is T1, purified recombinant human MMP-2 (Homo sapiens, UniProt P08253).
T1 construct: made in house
T1 sequence (P08253 110-660): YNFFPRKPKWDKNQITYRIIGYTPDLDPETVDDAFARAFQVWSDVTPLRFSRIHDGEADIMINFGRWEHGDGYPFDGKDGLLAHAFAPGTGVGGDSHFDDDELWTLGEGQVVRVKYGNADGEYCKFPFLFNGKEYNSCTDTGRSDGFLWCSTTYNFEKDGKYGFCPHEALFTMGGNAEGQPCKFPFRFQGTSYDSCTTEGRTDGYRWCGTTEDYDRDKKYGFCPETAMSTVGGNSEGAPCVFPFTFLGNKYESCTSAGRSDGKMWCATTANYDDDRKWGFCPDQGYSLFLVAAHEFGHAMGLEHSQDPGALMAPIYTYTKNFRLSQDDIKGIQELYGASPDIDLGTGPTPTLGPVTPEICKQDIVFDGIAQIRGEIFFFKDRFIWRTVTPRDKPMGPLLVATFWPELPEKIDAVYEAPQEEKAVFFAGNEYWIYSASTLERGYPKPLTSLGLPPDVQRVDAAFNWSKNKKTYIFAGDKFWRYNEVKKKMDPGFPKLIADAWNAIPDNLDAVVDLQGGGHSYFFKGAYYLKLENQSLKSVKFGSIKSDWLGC
Kind of assay: MMP-2 quenched fluorescence screening assay. It is filed as biochemical. The note with it: 96-well quenched fluorescence assay, same fluorogenic peptide substrate. The procedure:
(§1) A high-throughput, 96-well screen was used to measure MMP-9 activity and to detect potential inhibitors of MMP-9. The screen is a quenched fluorescence assay. The components of the assay include purified recombinant human MMP-9 (generated by. SB, 3 nM final concentration) and a fluorogenic peptide substrate (Peptides International, Louisville, Ky., 10 (M final concentration) incubated in the presence or absence of compound. Briefly, enzyme activity is measured after 30 minutes incubation at 37(C. and quantitated using a peptide substrate, (Dnp-Pro-Cha-Gly-Cys(Me)-His-Ala-Lys(NMa)-NH2 or (2,4-Dinitrophenyl-L-Prolyl-L-Cyclohexylalanyl-Glycyl(-Methyl-L-Cysteinyl-L-Histidyl-L-Alanyl-N(-Methylenthranoyl-L-Lysine Amide) containing a fluorophore, Nma, on one end of the peptide and a quencher, Dnp, on the other end. When the peptide is intact, the fluorophore is quenched. When the peptide is cleaved by MMP-9, the quencher is dissociated from the fluorophore and a fluorescent signal is emitted that can easily be detected using a fluorescent plate reader. The universal cleavage site within the peptide that is recognized by MMP-1, -2, -3, -9 and -13 is the Gly-Cys bond.
(§2) A 96-well quenched fluorescence assay was used to measure MMP-9 and MMP-2 activity and to detect potential inhibitors of MMP-9 and MMP-2. […] For these additional screens, an IC50 value was determined. […]

Assay [2] deals with T2, purified recombinant human MMP-9 (Homo sapiens, UniProt P14780).
T2 construct: made in house
Kind of assay: MMP-9 quenched fluorescence screening assay. Format: biochemical. The note with it: 96-well quenched fluorescence assay, fluorogenic peptide substrate, 30 minutes at 37 C. As for the experimental part:
as §1, §2

The structures appear in SMILES notation.

T2 sequence (P14780 94-707): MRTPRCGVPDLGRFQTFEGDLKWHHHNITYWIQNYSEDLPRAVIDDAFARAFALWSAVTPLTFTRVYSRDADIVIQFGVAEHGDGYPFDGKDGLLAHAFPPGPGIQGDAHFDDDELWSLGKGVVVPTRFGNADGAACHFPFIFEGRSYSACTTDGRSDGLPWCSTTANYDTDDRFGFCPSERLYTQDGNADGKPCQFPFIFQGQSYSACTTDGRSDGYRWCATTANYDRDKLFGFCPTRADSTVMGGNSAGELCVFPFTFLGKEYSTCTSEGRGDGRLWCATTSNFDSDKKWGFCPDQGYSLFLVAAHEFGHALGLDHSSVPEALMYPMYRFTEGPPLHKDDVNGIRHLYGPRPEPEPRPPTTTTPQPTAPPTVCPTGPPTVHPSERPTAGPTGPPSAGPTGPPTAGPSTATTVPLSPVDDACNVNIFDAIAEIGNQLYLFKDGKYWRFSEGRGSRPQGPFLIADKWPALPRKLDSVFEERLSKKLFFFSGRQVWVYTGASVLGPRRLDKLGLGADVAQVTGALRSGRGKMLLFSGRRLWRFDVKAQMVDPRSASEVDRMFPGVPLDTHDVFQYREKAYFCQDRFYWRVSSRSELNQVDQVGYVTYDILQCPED

For `CCCCCCCCC[C@H](CC(=O)O)C(=O)N[C@@H](C(=O)NC)c1ccccc1` [Example 1, N-[2(R)-Nonylsuccinic acid]-L-phenylglycine-N-methylamide], the “MMP-2 inhibition (screening result in words)” value in assay [1] is “identified as a dual MMP-2/MMP-9 inhibitor”. In addition, the “MMP-9 inhibition (screening result in words)” value in assay [2] is listed as “identified as a dual MMP-2/MMP-9 inhibitor”.
